Measured values: US11021444B2, “Antiviral compounds” (priority 2013, dated 2021)
Read-outs that look alike come from different tables or passages of the source.

Legend:
[1] = test system: RSV replicon; test: microbe, parasite or virus in culture; type: cell-based; conditions: human respiratory syncytial virus, read-out: EC50, the concentration of the drug required for reducing RSV replicon RNA by 50%
Protocol: The Renilla Luciferase Assay System (Promega, Cat. #E2820) was used to measure anti-RSV replicon activity. […] Luminescence was recorded using a Perkin Elmer multilabel counter Victor3V. EC50, the concentration of the drug required for reducing RSV replicon RNA by 50% in relation to the untreated cell control value, was calculated from the plot of percentage reductions of the optical density (OD) value against the drug concentrations using the Microsoft Excel forecast function.

[2] = molecular target: recombinant RSV complex (Human respiratory syncytial virus A, UniProt P28887); test: RSV Polymerase Inhibition Assay; type: biochemical
Method in brief: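 Inhibition measured as reduced incorporation of radiolabel into RNA products, detected by scintillation counting. Reactions: recombinant RSV complex (10 nM), RNA oligonucleotides, Tris-HCl pH 7.5, 6 mM MgCl2, inhibitor titration, 2 h at 30 °C, EDTA stop.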

Sequence of recombinant RSV complex (P28887 whole entry): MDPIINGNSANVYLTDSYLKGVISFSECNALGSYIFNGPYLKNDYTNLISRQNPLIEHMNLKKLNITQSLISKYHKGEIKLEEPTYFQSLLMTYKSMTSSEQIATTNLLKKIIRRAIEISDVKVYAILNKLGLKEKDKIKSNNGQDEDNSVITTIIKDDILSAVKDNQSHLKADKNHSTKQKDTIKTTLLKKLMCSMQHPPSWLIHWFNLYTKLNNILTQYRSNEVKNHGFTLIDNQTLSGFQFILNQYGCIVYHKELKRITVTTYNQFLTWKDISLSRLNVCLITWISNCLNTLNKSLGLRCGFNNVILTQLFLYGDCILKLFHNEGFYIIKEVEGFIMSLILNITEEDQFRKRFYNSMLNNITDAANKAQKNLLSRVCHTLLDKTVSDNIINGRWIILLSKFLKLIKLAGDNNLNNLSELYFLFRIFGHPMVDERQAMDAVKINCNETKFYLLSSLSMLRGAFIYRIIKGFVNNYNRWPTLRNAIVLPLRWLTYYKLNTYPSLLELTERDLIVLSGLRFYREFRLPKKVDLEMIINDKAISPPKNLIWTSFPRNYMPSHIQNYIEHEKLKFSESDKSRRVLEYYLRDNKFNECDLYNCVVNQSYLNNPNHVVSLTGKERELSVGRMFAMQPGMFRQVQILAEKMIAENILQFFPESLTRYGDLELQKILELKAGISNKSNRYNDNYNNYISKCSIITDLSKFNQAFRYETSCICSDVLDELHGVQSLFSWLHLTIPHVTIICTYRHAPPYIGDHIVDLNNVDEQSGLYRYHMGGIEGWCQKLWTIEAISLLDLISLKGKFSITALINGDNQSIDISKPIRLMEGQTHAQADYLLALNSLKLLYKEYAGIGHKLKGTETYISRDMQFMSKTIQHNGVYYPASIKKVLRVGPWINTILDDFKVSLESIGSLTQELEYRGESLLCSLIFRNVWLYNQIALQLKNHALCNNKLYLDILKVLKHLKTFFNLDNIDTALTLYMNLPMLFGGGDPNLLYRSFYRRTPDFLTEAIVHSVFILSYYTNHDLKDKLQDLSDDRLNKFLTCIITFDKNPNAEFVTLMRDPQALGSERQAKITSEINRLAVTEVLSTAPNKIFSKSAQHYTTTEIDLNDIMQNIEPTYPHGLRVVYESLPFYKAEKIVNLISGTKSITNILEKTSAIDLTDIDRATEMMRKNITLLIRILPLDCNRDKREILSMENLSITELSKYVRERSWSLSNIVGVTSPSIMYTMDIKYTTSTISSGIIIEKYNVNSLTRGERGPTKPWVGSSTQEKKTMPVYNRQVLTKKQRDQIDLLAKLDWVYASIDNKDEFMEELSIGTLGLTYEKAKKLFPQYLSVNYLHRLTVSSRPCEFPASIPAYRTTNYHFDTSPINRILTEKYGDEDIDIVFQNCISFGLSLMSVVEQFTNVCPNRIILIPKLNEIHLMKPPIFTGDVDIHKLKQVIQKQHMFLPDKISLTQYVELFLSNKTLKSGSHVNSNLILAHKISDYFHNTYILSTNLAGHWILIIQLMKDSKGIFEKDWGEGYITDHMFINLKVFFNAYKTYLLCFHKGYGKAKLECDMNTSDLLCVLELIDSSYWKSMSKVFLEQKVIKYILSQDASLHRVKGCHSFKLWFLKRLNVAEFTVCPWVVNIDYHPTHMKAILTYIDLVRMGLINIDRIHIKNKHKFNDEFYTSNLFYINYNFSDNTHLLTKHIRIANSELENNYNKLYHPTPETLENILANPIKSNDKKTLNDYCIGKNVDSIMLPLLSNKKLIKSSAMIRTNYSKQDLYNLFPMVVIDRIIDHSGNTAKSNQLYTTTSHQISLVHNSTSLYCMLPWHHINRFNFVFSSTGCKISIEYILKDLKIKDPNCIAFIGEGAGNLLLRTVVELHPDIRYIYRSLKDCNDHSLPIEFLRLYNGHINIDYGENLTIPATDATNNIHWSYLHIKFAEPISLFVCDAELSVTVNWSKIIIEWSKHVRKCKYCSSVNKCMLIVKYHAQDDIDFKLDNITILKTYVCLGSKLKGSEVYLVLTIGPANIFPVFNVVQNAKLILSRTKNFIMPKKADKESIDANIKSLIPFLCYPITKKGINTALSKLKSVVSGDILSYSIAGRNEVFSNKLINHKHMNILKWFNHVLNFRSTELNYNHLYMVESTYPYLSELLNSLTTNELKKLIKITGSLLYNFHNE
Sequence of recombinant RSV complex (P03421 whole entry, further chain): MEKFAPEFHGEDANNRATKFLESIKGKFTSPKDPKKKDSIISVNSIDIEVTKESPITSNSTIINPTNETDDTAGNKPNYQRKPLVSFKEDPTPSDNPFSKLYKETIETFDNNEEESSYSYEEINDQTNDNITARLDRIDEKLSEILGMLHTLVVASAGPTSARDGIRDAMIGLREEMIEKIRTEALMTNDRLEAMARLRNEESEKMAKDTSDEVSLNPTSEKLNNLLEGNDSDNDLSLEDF

Row | SMILES | EC50 [1] | IC50 [2] | IC50 ([2]; read-out: IC50 (compound concentration at which the enzyme-catalyzed rate was reduced by 50%), 10 nM recombinant RSV complex, 2 h at 30° C., Tables E, F and G list compounds by IC50 band)
1 | COc1cc(C(=O)NCC(C)(O)c2ccc(OC)c(-c3ccc(F)c(Cl)c3)n2)ccc1-n1cccn1 (stereo not drawn) [Compound 128] | 1000 to 50000 nM | < 1000 nM | 
2 | COc1cc(C(=O)NCC(C)(O)c2ccc(OC)c(-c3ccc(F)c(Cl)c3)n2)ccc1-c1ccncc1 (stereo not drawn) [Compound 147] | < 1000 nM | < 1000 nM | 
3 | COc1cc(C(=O)NCC(O)(c2cc3c(c(-c4ccc(F)c(Cl)c4)n2)OCC=C3)C2CC2)ccc1OCCO (stereo not drawn) [Compound 306] | < 1000 nM | < 1000 nM | 
4 | COc1cc(C(=O)NCC(C)(O)c2cc3c(c(-c4ccc(F)c(Cl)c4)n2)OCC=C3)ccc1OCCO (stereo not drawn) [Compound 307] | < 1000 nM | < 1000 nM | 
5 | COc1cc(C(=O)NCC(=O)c2cc3c(c(-c4ccc(F)c(Cl)c4)n2)OCCC3(C)C)ccc1OCCO [Compound 311] | < 1000 nM | < 1000 nM | 
6 | COc1ccc(C(=O)NCC(O)(c2cc(C(C)(C)N)cc(-c3ccc(F)c(Cl)c3)n2)C(F)(F)F)cc1OC (stereo not drawn) [Compound 316] | < 1000 nM | < 1000 nM | 
7 | COc1cc(C(=O)NCC(O)(c2cc(C(C)(C)N)cc(-c3ccc(F)cc3)n2)C(F)(F)F)ccc1O[C@H]1CCNC1=O (stereo partly drawn) [Compound 319] | < 1000 nM | < 1000 nM | 
8 | COc1cc(C(=O)NCC(O)(c2ccc(OC)c(-c3ccc(F)c(Cl)c3)n2)C(F)(F)F)ccc1OCc1ccn[nH]1 (stereo not drawn) [Compound 332] | 1000 to 50000 nM | < 1000 nM | 
9 | COc1cc(C(=O)NCC(O)(c2ccc(OC)c(-c3ccc(F)cc3)n2)C(F)(F)F)ccc1OCC(F)F (stereo not drawn) [Compound 341] | < 1000 nM |  | < 1000 nM
10 | COc1cc(C(=O)NCC(O)(c2cc(C3(NC(C)=O)CCC3)cc(-c3ccc(F)c(Cl)c3)n2)C(F)(F)F)ccc1OC1CC1 (stereo not drawn) [Compound 354] | < 1000 nM | < 1000 nM | 
11 | COc1cc(C(=O)NCC(O)(c2cc(C3(N)CCC3)cc(-c3ccc(F)c(Cl)c3)n2)C(F)(F)F)ccc1OC1CC1 (stereo not drawn) [Compound 355] | < 1000 nM | < 1000 nM | 
12 | COc1cc(C(=O)NCC(C)(OC)c2ccc(OC)c(-c3ccc(F)c(Cl)c3)n2)ccc1OCC(F)F (stereo not drawn) [Compound 375] | 1000 to 50000 nM | < 1000 nM | 
13 | COc1cc(C(=O)NCC(C)(OC)c2ccc(OC)c(-c3ccc(F)c(Cl)c3)n2)ccc1OC1CC1 (stereo not drawn) [Compound 376] | < 1000 nM | < 1000 nM | 
14 | COc1cc(C(=O)NCC(O)(c2ccc(OC)c(-c3ccc(F)c(Cl)c3)n2)C(F)(F)F)ccc1OC(C)C (stereo not drawn) [Compound 378] | 1000 to 50000 nM | < 1000 nM | 
15 | COc1cc(C(=O)NCC(C)(O)c2ccc(OC)c(-c3ccc(F)c(Cl)c3)n2)ccc1OCS(C)(=O)=O (stereo not drawn) [Compound 379] | < 1000 nM | < 1000 nM | 
16 | COc1ccc(C(O)(CNC(=O)c2ccc(OCC(N)=O)c(F)c2)C(F)(F)F)nc1-c1ccc(F)c(Cl)c1 (stereo not drawn) [Compound 380] | < 1000 nM | < 1000 nM | 
17 | CCNCc1cc(-c2ccc(F)cc2)nc(C(O)(CNC(=O)c2ccc(OC3CC3)c(OC)c2)C(F)(F)F)c1 (stereo not drawn) [Compound 389] | < 1000 nM | < 1000 nM | 
18 | CCNC(C)(C)c1cc(-c2ccc(F)c(Cl)c2)nc(C(O)(CNC(=O)c2ccc(OC3CC3)c(OC)c2)C(F)(F)F)c1 (stereo not drawn) [Compound 390] | < 1000 nM | < 1000 nM | 
19 | CNC(C)(C)c1cc(-c2ccc(F)cc2)nc(C(O)(CNC(=O)c2ccc(OC3CC3)c(OC)c2)C(F)(F)F)c1 (stereo not drawn) [Compound 393] | < 1000 nM | < 1000 nM | 
20 | COc1cc(C(=O)NCC(O)(c2cc(C(C)(C)N)cc(-c3ccc(F)c(Cl)c3)n2)C(F)(F)F)ccc1OCC(F)F (stereo not drawn) [Compound 395] | < 1000 nM | < 1000 nM | 
21 | COc1cc(C(=O)NCC(O)(c2cc(C(C)(C)CN)cc(-c3ccc(F)c(Cl)c3)n2)C(F)(F)F)ccc1OC1CC1 (stereo not drawn) [Compound 397] | < 1000 nM | < 1000 nM | 
22 | COc1cc(C(=O)NCC(O)(c2ccc(OC)c(-c3ccc(F)c(Cl)c3)n2)C2CC2)ccc1OCC(N)=O (stereo not drawn) [Compound 398] | < 1000 nM | < 1000 nM | 
23 | COc1cc(C(=O)NCC(O)(c2cc(C3(C)CCN(C)C3)cc(-c3ccc(F)cc3)n2)C(F)(F)F)ccc1OC1CC1 (stereo not drawn) [Compound 506] | < 1000 nM | < 1000 nM | 
24 | COc1cc(C(=O)NCC(O)(c2cc3c(c(-c4ccc(F)cc4)n2)OCC3(C)N)C(F)(F)F)ccc1OC1CC1 (stereo not drawn) [Compound 509] | < 1000 nM | < 1000 nM | 
